These results are taken from patent US8722578B2, “Spiroheterocyclic pyrrolidinedione herbicidal compositions” (Syngenta Participations AG, priority 2008, dated 2014).

Usually melting point stands for the temperature, or range, at which the solid turns liquid.

The test system of one data set is Setaria faberi (SETFA). As to the kind of experiment: Example B post-emergence herbicidal activity, glasshouse pot test. It is filed as in vivo. The settings on record: 312 h, rate 250 g/ha, evaluated after 13 days, read-out: SETFA post-emergence activity (100=total damage to plant; 0=no damage to plant). As for the experimental part:
(§1) Seeds of a variety of test species are sown in standard soil in pots. After cultivation for one day (pre-emergence) or after 8 days cultivation (post-emergence) under controlled conditions in a glasshouse (at 24/16° C., day/night; 14 hours light; 65% humidity), the plants are sprayed with an aqueous spray solution derived from the formulation of the technical active ingredient in acetone/water (50:50) solution containing 0.5% Tween 20 (polyoxyethelyene sorbitan monolaurate, CAS RN 9005-64-5). The test plants are then grown in a glasshouse under controlled conditions in a glasshouse (at 24/16° C., day/night; 14 hours light; 65% humidity) and watered twice daily. After 13 days for pre and post-emergence, the test is evaluated (100=total damage to plant; 0=no damage to plant). Test Plants: Setaria faberi (SETFA), Alopecurus myosuroides (ALOMY), Echinochloa crus-galli (ECHCG), Avena fatua (AVEFA)
For `CON1CCC2(CC1)NC(=O)C(c1cc(C3CC3)c(C)cc1C)C2=O` (centres unmarked) [Compound T16, 3-(5-cyclopropyl-2,4-dimethyl-phenyl)-4-hydroxy-8-methoxy-1,8-diaza-spiro[4.5]dec-3-en-2-one], the pest or weed control at 250 g/ha is 80%.

The subject of another data set is Avena fatua (AVEFA). The data set is described as above. In kind it is in vivo. The settings on record: 312 h, rate 250 g/ha, evaluated after 13 days, read-out: AVEFA post-emergence activity (100=total damage to plant; 0=no damage to plant). As for the experimental part:
as §1
On to `CON1CCC2(CC1)NC(=O)C(c1cc(C3CC3)c(C)cc1C)C2=O` (centres unmarked) [Compound T16, 3-(5-cyclopropyl-2,4-dimethyl-phenyl)-4-hydroxy-8-methoxy-1,8-diaza-spiro[4.5]dec-3-en-2-one], for which the pest or weed control at 250 g/ha is 30%.

The subject of a further data set is Echinochloa crus-galli (ECHCG). The data set is described as above. In kind it is in vivo. The settings on record: 312 h, rate 250 g/ha, evaluated after 13 days, read-out: ECHCG post-emergence activity (100=total damage to plant; 0=no damage to plant). As for the experimental part:
as §1
As for `CON1CCC2(CC1)NC(=O)C(c1cc(C3CC3)c(C)cc1C)C2=O` (centres unmarked) [Compound T16, 3-(5-cyclopropyl-2,4-dimethyl-phenyl)-4-hydroxy-8-methoxy-1,8-diaza-spiro[4.5]dec-3-en-2-one], the pest or weed control at 250 g/ha came out at 60%.

The next data set has as its system Alopecurus myosuroides (ALOMY). Described as above. In kind it is in vivo. Conditions: 312 h, rate 250 g/ha, evaluated after 13 days, read-out: ALOMY post-emergence activity (100=total damage to plant; 0=no damage to plant). As for the experimental part: as §1
`CON1CCC2(CC1)NC(=O)C(c1cc(C3CC3)c(C)cc1C)C2=O` (centres unmarked) [Compound T16, 3-(5-cyclopropyl-2,4-dimethyl-phenyl)-4-hydroxy-8-methoxy-1,8-diaza-spiro[4.5]dec-3-en-2-one]: the pest or weed control at 250 g/ha turned out to be 60%.

Test system in a further data set: not given
Assay: not given
Settings: not given
`CCOC(=O)OC1=C(c2cc(C)ccc2C)C(=O)NC12CCN(OC)CC2` [Compound P1] came in with a melting point of 170 to 173 °C.

`CCCOC(=O)OC1=C(c2cc(C)ccc2C)C(=O)NC12CCN(OC)CC2` [Compound P2] showed a melting point of 133 to 136 °C.

Take `CON1CCC2(CC1)NC(=O)C(c1cc(C)ccc1C)=C2OC(=O)OC(C)C` [Compound P3]: the melting point lay within 207 to 209 °C.

The compound `C=CCOC(=O)OC1=C(c2cc(C)ccc2C)C(=O)NC12CCN(OC)CC2` [Compound P4] had a melting point of 140 to 142 °C.

For the compound `C=COC(=O)OC1=C(c2cc(C)ccc2C)C(=O)NC12CCN(OC)CC2` [Compound P6], the melting point fell in the range of 162 to 164 °C.

In turn, `CON1CCC2(CC1)NC(=O)C(c1cc(C)ccc1C)=C2OC(=O)OCC(C)(C)C` [Compound P7] displayed a melting point of 196 to 197 °C.

The compound `C#CCOC(=O)OC1=C(c2cc(C)ccc2C)C(=O)NC12CCN(OC)CC2` [Compound P8] registered a melting point of 151 to 153 °C.

`CON1CCC2(CC1)NC(=O)C(c1cc(C)ccc1C)=C2OC(=O)C(C)(C)C` [Compound P9] displayed a melting point of 158 to 159 °C.

Regarding `CCN(CC)C(=O)OC1=C(c2cc(C)ccc2C)C(=O)NC12CCN(OC)CC2` [Compound P10], the melting point is 129 to 131 °C.

With `COC1=C(c2cc(C)ccc2C)C(=O)NC12CCN(OC)CC2` [Compound P11], the melting point lay in the range of 203 to 205 °C.

The compound `COCOC1=C(c2cc(C)ccc2C)C(=O)NC12CCN(OC)CC2` [Compound P12] showed a melting point of 183 to 185 °C.

The compound `CON1CCC2(CC1)NC(=O)C(c1cc(C)ccc1C)=C2OS(=O)(=O)C(C)C` [Compound P13] yielded a melting point of 168 to 170 °C.

`CCOC(=O)OC1=C(c2c(Cl)cccc2Cl)C(=O)NC12CCN(OC)CC2` [Compound P17] showed a melting point of 229 to 232 °C.

`CON1CCC2(CC1)NC(=O)C(c1cc(C)ccc1C)=C2OC(C)=O` [Compound P19] displayed a melting point of 233 to 236 °C.

`CCC(=O)OC1=C(c2cc(C)ccc2C)C(=O)NC12CCN(OC)CC2` [Compound P20] showed a melting point of 202 to 204 °C.

In the case of `CCOC(=O)OC1=C(c2cc(C)ccc2C)C(=O)NC12CCN(OCC)CC2` [Compound P21], the melting point was 167 to 168 °C.

On to `CCOC(=O)OC1=C(c2ccc(Cl)cc2Cl)C(=O)NC12CCN(OCC)CC2` [Compound P23], for which the melting point lay in the range of 183 to 184 °C.

On to `CCON1CCC2(CC1)NC(=O)C(c1cc(C)ccc1C)=C2OC(=O)C(C)(C)C` [Compound P24], for which the melting point is 169 to 170 °C.

`CCON1CCC2(CC1)NC(=O)C(c1ccc(Cl)cc1Cl)=C2OC(=O)C(C)(C)C` [Compound P26] came in with a melting point of 165 to 166 °C.

In turn, `CCOC(=O)OC1=C(c2cc(Br)ccc2C)C(=O)NC12CCN(OC)CC2` [Compound P27] yielded a melting point of 205 to 209 °C.

In the case of `CON1CCC2(CC1)NC(=O)C(c1cc(Br)ccc1C)=C2OC(=O)N(C)CCC#N` [Compound P28], the melting point fell in the range of 197 to 200 °C.

As to `CCOC(=O)OC1=C(c2ccc(Cl)c(Cl)c2)C(=O)NC12CCN(OC)CC2` [Compound P30], the melting point is 222 to 224 °C.

In the case of `CCOC(=O)OC1=C(c2cc(OC)ccc2OC)C(=O)NC12CCN(OC)CC2` [Compound P31], the melting point lay in the range of 192 to 193 °C.

The compound `CON1CCC2(CC1)NC(=O)C(c1c(Cl)cccc1Cl)=C2OC(=O)N(C)CCC#N` [Compound P33] returned a melting point of 239 to 242 °C.

`CON1CCC2(CC1)NC(=O)C(c1cc(C)ccc1C)=C2OCC#N` [Compound P35]: the melting point was in the range of 104 to 106 °C.

As to `C=CCOC1=C(c2cc(C)ccc2C)C(=O)NC12CCN(OC)CC2` [Compound P37], the melting point lay in the range of 173 to 174 °C.

In turn, `C#CCOC1=C(c2cc(C)ccc2C)C(=O)NC12CCN(OC)CC2` [Compound P38] yielded a melting point of 184 to 185 °C.

The compound `CON1CCC2(CC1)NC(=O)C(c1c(C)cc(C)cc1C)=C2OC(=O)N(C)CCC#N` [Compound P40] had a melting point of 220 to 224 °C.

`CON1CCC2(CC1)NC(=O)C(c1ccc(Cl)c(Cl)c1)=C2OC(=O)N(C)CCC#N` [Compound P41]: the melting point lay within 56 to 59 °C.

`COc1ccc(OC)c(C2=C(OC(=O)N(C)CCC#N)C3(CCN(OC)CC3)NC2=O)c1` [Compound P42] displayed a melting point of 187 to 189 °C.

Compound `C=CCOC(=O)OC1=C(c2cc(Br)ccc2C)C(=O)NC12CCN(OC)CC2` [Compound P45] displayed a melting point of 157 to 158 °C.

Consider `C=CCOC(=O)OC1=C(c2ccc(Cl)c(Cl)c2)C(=O)NC12CCN(OC)CC2` [Compound P46], for which the melting point lay within 210 to 213 °C.

The compound `C=CCOC(=O)OC1=C(c2cc(OC)ccc2OC)C(=O)NC12CCN(OC)CC2` [Compound P47] came in with a melting point of 156 to 157 °C.

The compound `CCOC(=O)OC1=C(c2c(C)cc(C3CC3)cc2C)C(=O)NC12CCN(OC)CC2` [Compound P50] yielded a melting point of 215 to 216 °C.

On to `CCOC(=O)OC1=C(c2cc(Br)c(C)cc2C)C(=O)NC12CCN(OC)CC2` [Compound P51], for which the melting point is 206 to 209 °C.

The compound `CON1CCC2(CC1)NC(=O)C(c1cc(Br)c(C)cc1C)=C2OC(=O)C(C)(C)C` [Compound P52] gave a melting point of 225 to 226 °C.

In turn, `CON1CCC2(CC1)NC(=O)C(c1cc(-c3ccc(Cl)cc3)c(C)cc1C)=C2OC(=O)C(C)(C)C` [Compound P54] had a melting point of 229 to 230 °C.

In the case of `CON1CCC2(CC1)NC(=O)C(c1c(C)cc(C3CC3)cc1C)=C2OC(=O)C(C)(C)C` [Compound P57], the melting point was greater than 200 °C.

As for `CCOC(=O)OC1=C(c2ccc(C3CC3)cc2Cl)C(=O)NC12CCN(OC)CC2` [Compound P58], the melting point is 190 to 192 °C.

Take `CON1CCC2(CC1)NC(=O)C(c1ccc(C3CC3)cc1Cl)=C2OC(=O)C(C)(C)C` [Compound P59]: the melting point lay within 195 to 197 °C.

On to `CCOC(=O)OC1=C(c2ccc(C3CC3)cc2C)C(=O)NC12CCN(OC)CC2` [Compound P60], for which the melting point is 193 to 195 °C.

`CON1CCC2(CC1)NC(=O)C(c1ccc(C3CC3)cc1C)=C2OC(=O)C(C)(C)C` [Compound P61] returned a melting point of 244 to 245 °C.

As for `CON1CCC2(CC1)NC(=O)C(c1cc(Br)c(F)cc1C)=C2OC(=O)C(C)(C)C` [Compound P63], the melting point is 216 to 217 °C.

Turning to `CON1CCC2(CC1)NC(=O)C(c1cc(-c3ccc(F)cc3)c(F)cc1C)=C2OC(=O)C(C)(C)C` [Compound P72], the melting point fell in the range of 101 to 104 °C.

The compound `COCCOC1=C(c2cc(C)ccc2C)C(=O)NC12CCN(OC)CC2` [Compound P73] gave a melting point of 161 to 164 °C.

For `CCON1CCC2(CC1)NC(=O)C(c1ccc(Cl)cc1Cl)C2=O` (centres unmarked) [Compound T6], the melting point fell in the range of 244 to 245 °C.

Regarding `CCON1CCC2(CC1)NC(=O)C(c1cc(C)ccc1C)C2=O` (centres unmarked) [Compound T7], the melting point is 166 to 167 °C.

On to `CON1CCC2(CC1)NC(=O)C(c1cc(Br)ccc1C)C2=O` (centres unmarked) [Compound T8], for which the melting point is 194 to 196 °C.

In turn, `CON1CCC2(CC1)NC(=O)C(c1ccc(Cl)c(Cl)c1)C2=O` (centres unmarked) [Compound T10] displayed a melting point of 239 to 242 °C.

The compound `COc1ccc(OC)c(C2C(=O)NC3(CCN(OC)CC3)C2=O)c1` (centres unmarked) [Compound T11] displayed a melting point of 194 to 196 °C.

Regarding `CON1CCC2(CC1)NC(=O)C(c1c(C)cc(C3CC3)cc1C)C2=O` (centres unmarked) [Compound T13], the melting point was greater than 250 °C.

For the compound `CON1CCC2(CC1)NC(=O)C(c1ccc(C3CC3)cc1Cl)C2=O` (centres unmarked) [Compound T17], the melting point lay within 206 to 207 °C.

On to `CON1CCC2(CC1)NC(=O)C(c1ccc(C3CC3)cc1C)C2=O` (centres unmarked) [Compound T18], for which the melting point was 191 to 194 °C.

Compound `CON1CCC2(CC1)NC(=O)C(c1cc(Br)c(F)cc1C)=C2O` [Compound T19, 3-(5-bromo-4-fluoro-2-methyl-phenyl)-4-hydroxy-8-methoxy-1,8-diaza-spiro[4.5]dec-3-en-2-one] registered a melting point of 229 to 230 °C.

`CON1CCC2(CC1)NC(=O)C(c1c(C)cc(C)c(Cl)c1C)C2=O` (centres unmarked) [Compound T20] showed a melting point greater than 200 °C.
